Results as given in publication PMC5681660, “Reduced hepatitis B and D viral entry using clinically applied drugs as novel inhibitors of the bile acid transporter NTCP” (Scientific Reports, 2017).
Structures can show the parent of a compound that is named as a salt.

Molecular target: T1, human NTCP (Homo sapiens, UniProt Q14973)
T1 sequence (Q14973 1-349): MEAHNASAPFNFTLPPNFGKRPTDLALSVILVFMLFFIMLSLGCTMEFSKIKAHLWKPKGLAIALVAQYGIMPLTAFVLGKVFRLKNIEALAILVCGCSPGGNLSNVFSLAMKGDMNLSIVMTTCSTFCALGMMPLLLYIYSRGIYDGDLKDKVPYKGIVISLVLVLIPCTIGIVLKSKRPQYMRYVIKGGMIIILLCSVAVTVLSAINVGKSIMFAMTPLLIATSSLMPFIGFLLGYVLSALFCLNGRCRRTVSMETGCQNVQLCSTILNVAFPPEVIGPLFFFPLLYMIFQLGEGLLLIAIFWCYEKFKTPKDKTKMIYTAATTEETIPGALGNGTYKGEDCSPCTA
Assay: Screening taurocholate uptake assay (96-well, [14C]taurocholate, 10 µM drug)
Settings: for B-score functional assay: screening taurocholate uptake, 10 µM drug

[1] = ranking over the functional and the binding screening assay
[2] = combined ranking of functional and binding screening assays

SMILES	Ranking score [1]	B-score functional assay	Ranking score [2]	B-score functional assay (B-score)
CN1CCCN=C1/C=C/c1cccc(O)c1.O=C(O)c1cc2ccccc2c(Cc2c(O)c(C(=O)O)cc3ccccc23)c1O [Oxantel pamoate]	130.111	-5.305		
CN(C(=O)CN(CCO)CC(=O)N(C)C(C)(C)Cc1ccccc1)C(C)(C)Cc1ccccc1 [Oxethazaine]		0.282	642.638	
CCCOc1ccc2nc(NC(=O)OC)[nH]c2c1 [Oxibendazol]	199.274	-0.538		
C[C@]12C/C(=C/O)C(=O)C[C@@H]1CC[C@@H]1[C@@H]2CC[C@@]2(C)[C@H]1CC[C@]2(C)O [Oxymetholone]		-1.45	467.145	
C=C1C(=O)O[C@H]2[C@H]1CC/C(C)=C/CC[C@@]1(C)O[C@@H]21 [Parthenolide]		2.985	607.546	
Nc1nc2[nH]cc(CCc3ccc(C(=O)N[C@@H](CCC(=O)O)C(=O)O)cc3)c2c(=O)[nH]1 [Pemetrexed disodium]	234.359	-1.364		
Cc1cccn2c(=O)c(-c3nnn[nH]3)cnc12 [Pemirolast potassium]		0.868	607.829	
Nc1nc2c(ncn2CCC(CO)CO)c(=O)[nH]1 [Penciclovir]		-0.886	573.819	
N=C(N)c1ccc(OCCCCCOc2ccc(C(=N)N)cc2)cc1 [Pentamidine isethionate]		-0.233	489.028	
CC(=O)CCCCn1c(=O)c2c(ncn2C)n(C)c1=O [Pentoxifylline]		-0.027	582.174	
OCCN1CCN(CCCN2c3ccccc3Sc3ccc(Cl)cc32)CC1 [Perphenazine]	88.5268	-0.257		
Nc1ccc(/N=N/c2ccccc2)c(N)n1 [Phenazopyridine hydrochloride]	182.587	-0.376		
[H]/N=C(/N)N/C(=N/[H])NCCc1ccccc1 [Phenformin hydrochloride]	172.511	0.533		
O=C1c2ccccc2C(=O)C1c1ccccc1 [Phenindione]		1.774	569.166	
c1ccc2c(c1)Nc1ccccc1S2 [Phenothiazine]		-0.168	553.972	
CC(COc1ccccc1)N(CCCl)Cc1ccccc1 (stereo not drawn) [Phenoxybenzamine hydrochloride]	229.8	-0.06		
NC(=O)OCCCc1ccccc1 [Phenprobamate]		0.708	613.275	
CN1CCC(=C2c3ccccc3Sc3ccccc32)CC1 [Pimethixene maleate]		-0.824	556.525	
O=c1[nH]c2ccccc2n1C1CCN(CCCC(c2ccc(F)cc2)c2ccc(F)cc2)CC1 [Pimozide]	234.734	-2.417		
CC(=O)c1ccc2c(c1)N(CCCN1CCC(CCO)CC1)c1ccccc1S2 [Piperacetazine]		-0.935	531.5	
CCN1CCN(C(=O)N[C@@H](C(=O)N[C@@H]2C(=O)N3[C@@H]2SC(C)(C)[C@@H]3C(=O)O)c2ccccc2)C(=O)C1=O [Piperacillin sodium salt]		-0.194	549.729	
NS(=O)(=O)c1cc(C(=O)O)cc(N2CCCC2)c1Oc1ccccc1 [Piretanide]		-0.384	548.109	
CS(=O)(=O)O.Cc1ccc2c(c1)c1c3n2CCNC3CCC1 (stereo not drawn) [Pirlindole mesylate]		0.129	496.839	
CC(C)(C)C(=O)OCOC(=O)[C@@H]1N2C(=O)[C@@H](NC(=O)[C@H](N)c3ccccc3)[C@H]2SC1(C)C [Pivampicillin]	199.66	2.096		
COc1cc([C@@H]2c3cc4c(cc3[C@H](O)[C@H]3COC(=O)[C@H]23)OCO4)cc(OC)c1OC [Podophyllotoxin]			1193.91	1.781
CC(=O)Nc1ccc(OCC(O)CNC(C)C)cc1 (stereo not drawn) [Practolol]	213.764	-2.472		
C[n+]1ccccc1/C=N/O [Pralidoxime chloride]		-0.006	600.675	

SMILES	Ranking score [1]	B-score functional assay	Ranking score [2]	B-score functional assay (B-score)
O=C(Nc1cccc2c(=O)cc(-c3nnn[nH]3)oc12)c1ccc(OCCCCc2ccccc2)cc1 [Pranlukast]	43.359	-8.959		
CC[C@H](C)C(=O)O[C@H]1C[C@H](O)C=C2C=C[C@H](C)[C@H](CC[C@@H](O)C[C@@H](O)CC(=O)O)[C@H]21 [Pravastatin]	245.632	-3.481		
O=C(C1CCCCC1)N1CC(=O)N2CCc3ccccc3C2C1 (stereo not drawn) [Praziquantel]	262.237	-0.749		
CCOC(=O)O[C@]1(C(=O)COC(=O)CC)CC[C@H]2[C@@H]3CCC4=CC(=O)C=C[C@]4(C)[C@H]3[C@@H](O)C[C@@]21C [Prednicarbate]	140.036	-1.448		
C[C@]12C=CC(=O)C=C1CC[C@@H]1[C@@H]2[C@@H](O)C[C@@]2(C)[C@H]1CC[C@]2(O)C(=O)CO [Prednisolone]		-0.52	486.999	
CCCC(C(=O)OCCN(CC)CC)(c1ccccc1)c1ccccc1 [Proadifen hydrochloride]		-1.354	468.828	
CN1CCN(CCCN2c3ccccc3Sc3ccc(Cl)cc32)CC1 [Prochlorperazine dimaleate]	89.1291	-4.76		
OC(CCN1CCCC1)(c1ccccc1)C1CCCCC1 (stereo not drawn) [Procyclidine hydrochloride]		-0.705	562.821	
CC(=O)[C@H]1CC[C@H]2[C@@H]3CCC4=CC(=O)CC[C@]4(C)[C@H]3CC[C@]12C [Progesterone]		0.628	609.007	
CCCN(CCC)C(=O)C(CCC(=O)O)NC(=O)c1ccccc1 (stereo not drawn) [Proglumide]	231.221	0.098		
CC(C)[N+](C)(CCOC(=O)C1c2ccccc2Oc2ccccc21)C(C)C [Propantheline bromide]		-0.131	472.136	
CC[N+](C)(CC)CCC[n+]1c(-c2ccccc2)c2cc(N)ccc2c2ccc(N)cc21.[I-].[I-] [Propidium iodide]		-1.35	504.845	
CCCOc1cc(N)ccc1C(=O)OCCN(CC)CC [Propoxycaine hydrochloride]	73.2735	-2.561		
C[C@@H]1O[C@@H](O[C@@H]2C=C3CC[C@@H]4[C@H](CC[C@]5(C)[C@@H](c6ccc(=O)oc6)CC[C@]45O)[C@@]3(C)CC2)[C@H](O)[C@H](O)[C@H]1O [Proscillaridin A]	183.761	-2.06		
CN1CCCN=C1/C=C/c1cccs1.O=C(O)C(O)C(O)C(=O)O [Pyrantel tartrate]		-0.111	600.829	
NC(=O)c1cnccn1 [Pyrazinamide]	244.119	0.065		
CN(C)C(=O)Oc1ccc[n+](C)c1.[I-] [Pyridostigmine iodide]			1177.01	1.154
CCc1nc(N)nc(N)c1-c1ccc(Cl)cc1 [Pyrimethamine]			1154.81	2.36
CCC1(CC)C(=O)C=CNC1=O [Pyrithyldione]		0.404	558.14	
OCCOCCN1CCN(C2=Nc3ccccc3Sc3ccccc32)CC1 [Quetiapine hemifumarate]		-0.346	473.772	
CC(=O)SCC(Cc1ccccc1)C(=O)NCC(=O)OCc1ccccc1 (stereo not drawn) [Racecadotril]	264.726	-1.398		
CNCC(O)c1ccc(O)c(O)c1 (stereo not drawn) [Racepinephrine HCl]		-0.581	629.338	
COc1ccccc1OCC(O)CN1CCN(CC(=O)Nc2c(C)cccc2C)CC1 (stereo not drawn) [Ranolazine]		1.748	603.017	
CCN1CCC[C@H]1CNC(=O)c1c(OC)ccc(Br)c1OC.Cl [Remoxipride Hydrochloride]		-0.058	496.085	
CCOc1cc(CC(=O)N[C@@H](CC(C)C)c2ccccc2N2CCCCC2)ccc1C(=O)O [Repaglinide]	233.103	-2.984		
CC1=C(/C=C/C(C)=C/C=C/C(C)=C/C(=O)O)C(C)(C)CCC1 [Retinoic acid]	197.388	-0.152		
CO[C@H]1/C=C/O[C@@]2(C)Oc3c(C)c(O)c4c(O)c(c(/C=N/N5CCN(C6CCCC6)CC5)c(O)c4c3C2=O)NC(=O)/C(C)=C\C=C\[C@H](C)[C@H](O)[C@@H](C)[C@@H](O)[C@@H](C)[C@H](OC(C)=O)[C@@H]1C [Rifapentine]	220.209	0.477		
